Assay results: US10766869B2, “Triazoles for the treatment of demyelinating dieases” (Vertex Pharmaceuticals Incorporated, priority 2015, dated 2020)
Where two headings read alike, the source gives them in different places.

System: primary rat mixed cortical cells
Assay: In vitro myelination assay (MBP positive myelin strands, fold myelin pixels above background)
Format: cell-based
Details: Rattus norvegicus; for fold induction at 1 µM: 1.0 μM compound; for fold induction at 10 µM: 10.0 μM compound
Summary of the method: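 P1 rat mixed cortical cultures (neurons, OPCs, oligodendrocytes, astrocytes, microglia) grown 14 days at 37 °C with compound, half-medium refreshed with compound on days 6 and 10. Fixed cells stained for MBP; MBP-positive myelin strand pixels per well quantified by automated imaging, reported as fold over no-compound baseline at 1.0 and 10.0 μM.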

[1] = relative to baseline of no added compound, read-out: Fold myelin pixels above background
[2] = relative to baseline of no added compound, read-out: Fold myelin pixels above background, 1.0 μM
[3] = relative to baseline of no added compound, read-out: Fold myelin pixels above background, 10.0 μM
[4] = read-out: Fold myelin pixels above background relative to baseline of no added compound

Row | SMILES | fold induction at 1 µM [1] | fold induction at 10 µM [1] | fold induction at 1 µM [4] | fold induction at 10 µM [4] | other results
1 | Cc1cc(Nc2ncn(-c3cc(F)cc(F)c3)n2)cc([C@@]2(C)CN(C3COC3)CCO2)c1 (single isomer, unassigned) [Compound 667] | 10 to 100 | 1 to 10 | – | – | –
2 | Fc1ccc(-n2cnc(Nc3cc(C4CC4)nc(N4CCCCC4)c3)n2)cc1F [Compound 327, 2-cyclopropyl-N-[1-(3,4-difluorophenyl)-1,2,4-triazol-3-yl]-6-(1-piperidyl)pyridin-4-amine] | – | – | – | – | fold induction at 1 µM [2]: 100 to 1000; fold induction at 10 µM [3]: 100 to 1000
3 | Cc1nccc(-n2cnc(Nc3cc(C4CC4)cc(N4CCN(C5COC5)CC4)c3)n2)n1 [Compound 454, N-[3-cyclopropyl-5-[4-(oxetan-3-yl)piperazin-1-yl]phenyl]-1-(2-methylpyrimidin-4-yl)-1,2,4-triazol-3-amine] | ≤ 1 | 1 to 10 | – | – | –
4 | FC(F)(F)c1cc(Nc2ncn(-c3cnccn3)n2)nc(N2CCN(C3COC3)CC2)c1 [Compound 712, 6-[4-(oxetan-3-yl)piperazin-1-yl]-N-(1-pyrazin-2-yl-1,2,4-triazol-3-yl)-4-(trifluoromethyl)pyridin-2-amine] | 1 to 10 | 1 to 10 | – | – | –
5 | Cc1cc(Nc2ncn(-c3cc(F)cc(F)c3)n2)cc(N2CCN(CC3CCCN(C)C3)CC2)c1 (stereo not shown) [Compound 1047, 1-(3,5-difluorophenyl)-N-[3-methyl-5-[4-[(1-methyl-3-piperidyl)methyl]piperazin-1-yl]phenyl]-1,2,4-triazol-3-amine] | – | – | 1 to 10 | ≤ 1 | –
6 | Cc1cc(Nc2ncn(-c3cc(F)ccc3F)n2)cc(N2CCN(C3(C)COC3)CC2)c1 [Compound 469, 1-(2,5-difluorophenyl)-N-[3-methyl-5-[4-(3-methyloxetan-3-yl)piperazin-1-yl]phenyl]-1,2,4-triazol-3-amine] | 100 to 1000 | 10 to 100 | – | – | –
7 | CC(=O)N1CCC(c2cc(C)cc(Nc3ncn(-c4cc(F)cc(F)c4)n3)c2)CC1 [Compound 90, 1-[4-[3-[[1-(3,5-difluorophenyl)-1,2,4-triazol-3-yl]amino]-5-methyl-phenyl]-1-piperidyl]ethanone] | – | – | – | – | fold induction at 1 µM [2]: 100 to 1000; fold induction at 10 µM [3]: 1 to 10
8 | Fc1ccc(-n2cnc(Nc3cc(C4=CCOCC4)nc(C4CC4)c3)n2)cc1F [Compound 3, 2-cyclopropyl-N-[1-(3,4-difluorophenyl)-1,2,4-triazol-3-yl]-6-(3,6-dihydro-2H-pyran-4-yl)pyridin-4-amine] | – | – | – | – | fold induction at 1 µM [2]: 100 to 1000; fold induction at 10 µM [3]: 1000 to 10000
9 | Cc1cc(CN2CCN(C3COC3)CC2)c(F)c(Nc2ncn(-c3ccc(F)c(F)c3)n2)c1 [Compound 834, 1-(3,4-difluorophenyl)-N-[2-fluoro-5-methyl-3-[[4-(oxetan-3-yl)piperazin-1-yl]methyl]phenyl]-1,2,4-triazol-3-amine] | – | – | 1 to 10 | 1 to 10 | –
10 | Cc1ccc(-n2cnc(Nc3cc(C)cc(N4CCN(C5COC5)CC4)c3)n2)cc1 [Compound 70, N-[3-methyl-5-[4-(oxetan-3-yl)piperazin-1-yl]phenyl]-1-(p-tolyl)-1,2,4-triazol-3-amine] | – | – | – | – | fold induction at 1 µM [2]: ≤ 1; fold induction at 10 µM [3]: 10 to 100
11 | Cc1cc(Nc2ncn(-c3cc(F)cc(F)c3)n2)cc(NC2CCOC(C3CC3)C2)c1 (stereo not shown) [Compound 918, N1-(2-cyclopropyltetrahydropyran-4-yl)-N3-[1-(3,5-difluorophenyl)-1,2,4-triazol-3-yl]-5-methyl-benzene-1,3-diamine] | – | – | 1 to 10 | ≤ 1 | –
12 | [2H]C([2H])([2H])C(=O)N1C([2H])([2H])C([2H])([2H])N(c2cc(C)cc(Nc3ncn(-c4cc(F)cc(F)c4)n3)c2)C([2H])([2H])C1([2H])[2H] [Compound 959, 2,2,2-trideuterio-1-[2,2,3,3,5,5,6,6-octadeuterio-4-[3-[[1-(3,5-difluorophenyl)-1,2,4-triazol-3-yl]amino]-5-methyl-phenyl]piperazin-1-yl]ethanone] | – | – | 1 to 10 | ≤ 1 | –
13 | Cc1cc(Nc2ncn(-c3cc(F)cc(F)c3)n2)cc(C2CN(C3COC3)CCO2)c1 (stereo not shown) [Compound 581, 1-(3,5-difluorophenyl)-N-[3-methyl-5-[4-(oxetan-3-yl)morpholin-2-yl]phenyl]-1,2,4-triazol-3-amine] | 10 to 100 | ≤ 1 | – | – | –
14 | Cc1cc(Nc2ncn(-c3cc(F)cc(F)c3)n2)cc(N2CC(N3CCN(C)CC3)C2)c1 [Compound 975, 1-(3,5-difluorophenyl)-N-[3-methyl-5-[3-(4-methylpiperazin-1-yl)azetidin-1-yl]phenyl]-1,2,4-triazol-3-amine] | – | – | 1 to 10 | ≤ 1 | –
15 | Cc1cc(NCC2CN(CC(C)C)CCO2)cc(Nc2ncn(-c3cc(F)cc(F)c3)n2)c1 (stereo not shown) [Compound 903, N1-[1-(3,5-difluorophenyl)-1,2,4-triazol-3-yl]-N3-[(4-isobutylmorpholin-2-yl)methyl]-5-methyl-benzene-1,3-diamine] | – | – | 10 to 100 | 1 to 10 | –
16 | Cc1ccc(-n2cnc(Nc3cc(F)cc(N4CCN(C5COC5)CC4)c3)n2)cc1F [Compound 779, 1-(3-fluoro-4-methyl-phenyl)-N-[3-fluoro-5-[4-(oxetan-3-yl)piperazin-1-yl]phenyl]-1,2,4-triazol-3-amine] | 1 to 10 | 1 to 10 | – | – | –
17 | Cc1cc(Nc2ncn(-c3cc(F)cc(F)c3)n2)cc(N2CCC(C3CCOC3)C2)c1 (stereo not shown) [Compound 1083, 1-(3,5-difluorophenyl)-N-[3-methyl-5-(3-tetrahydrofuran-3-ylpyrrolidin-1-yl)phenyl]-1,2,4-triazol-3-amine] | – | – | 1 to 10 | ≤ 1 | –
18 | Cc1cc(Nc2ncn(-c3cc(F)cc(F)c3)n2)cc(N2CC(N3CCOC4CC43)C2)c1 (stereo not shown) [Compound 652, 1-(3,5-difluorophenyl)-N-[3-methyl-5-[3-(5-oxa-2-azabicyclo[4.1.0]heptan-2-yl)azetidin-1-yl]phenyl]-1,2,4-triazol-3-amine] | 10 to 100 | ≤ 1 | – | – | –
19 | Cc1cc(Nc2ncn(-c3cc(F)cc(F)c3)n2)cc(NC2COC2)c1 [Compound 240, N3-[1-(3,5-difluorophenyl)-1,2,4-triazol-3-yl]-5-methyl-N1-(oxetan-3-yl)benzene-1,3-diamine] | – | – | – | – | fold induction at 1 µM [2]: 100 to 1000; fold induction at 10 µM [3]: 1 to 10
20 | Cc1cc(Nc2ncn(-c3cc(F)cc(F)c3)n2)cc([C@]2(C)CNC(=O)O2)c1 (single isomer, unassigned) [Compound 655] | 10 to 100 | ≤ 1 | – | – | –
21 | Cc1cc(Nc2ncn(-c3cc(F)cc(F)c3)n2)cc(O[C@@H]2CCCN(C3COC3)C2)c1 (single isomer, unassigned) [Compound 748] | 10 to 100 | ≤ 1 | – | – | –
22 | Cc1cc(Nc2ncn(-c3cc(F)cc(F)c3)n2)cc(N2C[C@H]3C[C@@H]2CO3)c1 [Compound 628, 1-(3,5-difluorophenyl)-N-[3-methyl-5-[(1R,4R)-2-oxa-5-azabicyclo[2.2.1]heptan-5-yl]phenyl]-1,2,4-triazol-3-amine] | 10 to 100 | 1 to 10 | – | – | –
23 | Fc1cc(Nc2ncn(-c3ccccc3F)n2)cc(N2CCCC2)c1 [Compound 83, 1-(2-fluorophenyl)-N-(3-fluoro-5-pyrrolidin-1-yl-phenyl)-1,2,4-triazol-3-amine] | – | – | – | – | fold induction at 1 µM [2]: ≤ 1; fold induction at 10 µM [3]: 10 to 100
